Reference: patent US10577351B2, “Therapeutic polymeric nanoparticles and methods of making and using same” (ASTRAZENECA AB, priority 2013, dated 2020)
Where two headings read alike, the source gives them in different places. Each block holds one compound with its values, some of them ahead of it.

What was measured:
[1] = Acid dissociation constant (pKa); format: physicochemical
[2] = reported (SciFinder); cited from earlier work
[3] = reported (SciFinder); cited from earlier work; remark: listed apart in the source
bone marrow [4] = experiment: Bone marrow hypocellularity, pathologist assessment of haematoxylin and eosin sections; format: in vivo, rat; settings: 25 mg/kg IV; day 5 and 9; FIG. 13
Protocol: Female nude rats were bred at AstraZeneca, and put into study at a minimum weight of 150 g. Animals were inoculated in the flank with SW620 human tumour cells and dosing started when tumours had reached 0.4-0.9 cm^3. Compounds were dosed intravenously (IV) at 5 ml/kg with either control, AZD1152 or AZD1152 hqpa nanoparticle formulation B or E. AZD1152 was dosed in tris buffer vehicle (days 1-4 IV, each dose at 25 mg/kg) and AZD1152 hqpa nanoparticle formulation was dosed in physiological saline (dosed 25 mg/kg on each of days 1 and 3 IV). At the time points indicated animals were sacrificed and tumour, blood and femur/bone marrow samples taken. Effects of the treatments on the tumour and the bone marrow were scored by a pathologist assessment of haematoxylin and eosin stained sections derived from the femur.
(§1) Rats were injected IV with BIND Placebo (0 mg/kg), or AZD1152/AZD1152 hqpa Formulation E/F1/F2 at 25 mg/kg at the times indicated and sacrificed at the times indicated.
Bone marrows samples were extracted from each animal. Firstly samples of bone marrow were processed for pathological assessment. […] Bone marrow integrity was scored by the pathologist. […]
Bone marrow samples were extracted from each animal and processed for pathological assessment. […] Bone marrow integrity was scored by the pathologist. […]

bone marrow [5] = experiment: Bone marrow cellularity by FACS (total nucleated cells); format: in vivo, rat; settings: 25 mg/kg IV; FIG. 14
Protocol: as §1
Secondly bone marrow flushes taken to examine bone marrow cellularity by FACs. At termination bone marrow from each Femur was taken into 50% FBS and 50% PBS on ice. Cells were pelleted by centrifugation at 4° C. and re-suspended in PBS. Cells were pelleted again at 4° C. and re-suspended in PBS. 50 μl of LDS-751 (0.5 mg/ml in methanol) was added and cells vortexed. Finally the cells were filtered through a 50 micron filter into a FACS tube. Samples were analysed on a FACS Canto (Beckton Dickinson). A bone marrow hypocellularity is represented as a total of nucleated cells relative to untreated controls. The percentage cellularity of each bone marrow sample in each individual animal are shown. The dotted line represents the lowest percentage total nucleated cell value seen in animals receiving only vehicle (empty nanoparticle).

[6] = tested on: SW620 human tumour xenograft; experiment: SW620 anti-tumour study in male nude mouse; format: in vivo
Protocol: Male nude mice were bred at AstraZeneca. Animals were inoculated in the flank with SW620 human tumour cells, and then randomized onto study when tumours reached approximately 0.25 cm^3. AZD1152 was dosed in tris buffer vehicle at the concentration indicated. AZD1152 hqpa nanoparticle formulation E was dosed in physiological saline. Previous pre-clinical work and methodologies with AZD1152 are published in Wilkinson et al, Clinical Cancer Research 2007 (13) 3682. […] In this study AZD1152 was dosed on day 0-3 at 25 mg/kg (total 100 mg/kg). Formulation E was dosed at a variety of different schedules as described above.

[7] = tested on: histone H3 phosphorylation on Ser10 (pHH3), surrogate marker of Aurora B kinase activity; experiment: Tumour phospho-histone H3 (pHH3) biomarker in SW620 tumours by flow cytometry; format: in vivo, rat; settings: 24 hrs post single dose 25 mg/kg IV
Protocol: This experiment compares the effect of Formulation E, F1 and F2 on a phospho-histone H3 phosphorylation (pHH3) in SW620 tumours. AZD1152 was included as a positive control. The activity was measured as an inhibition of histone H3 phosphorylation on Ser^10 (pHH3 as a sensitive, highly dynamic surrogate marker of Aurora B kinase activity). Average level of pHH3 positivity [%] was calculated for the cells in G2/M phase of the cell cycle for each treatment group at 24 hrs and 96 hrs post 1st dose and compared to the pHH3 level observed for the cells in G2/M cell cycle phase that were extracted from the tumours treated with BIND Placebo (referred here as 100%). Statistical significance was calculated using Student t-test assuming unequal variances (*p<0.05, **p<0.01, ***p<001, n.s. P>0.05). […]
The activity was measured as an inhibition of histone H3 phosphorylation on Ser10 (pHH3 as a sensitive, highly dynamic surrogate marker of Aurora B kinase activity). Average level of pHH3 positivity [%] was calculated for the cells in G2/M phase of the cell cycle for each treatment group at 24, 48, 72, 96 and 120 hrs post 1 dose and compared to the pHH3 level observed for the cells in G2/M cell cycle phase that were extracted from the tumours treated with BIND Placebo (referred here as 100%). […]

- pKa1 [1]: 5.7
- pKa2 [1]: 8.46
Compound: CCN(CCO)CCCOc1ccc2c(Nc3cc(CC(=O)Nc4cccc(F)c4)[nH]n3)ncnc2c1 [AZD1152 hqpa, 2-(3-((7-(3-(ethyl(2-hydroxyethyl)amino)propoxy)quinazolin-4-yl)amino)-1H-pyrazol-5-yl)-N-(3-fluorophenyl)acetamide]

Compound: O=C(O)c1cc2ccccc2c(Cc2c(O)c(C(=O)O)cc3ccccc23)c1O [pamoic acid, 4,4′-methylenebis[3-hydroxy-2-naphthoic acid]]
- pKa1 [2]: 2.67
- log P [3]: 6.169

- bone marrow cellularity, total nucleated cells relative to untreated controls (bone marrow [5]): large impact on bone marrow
Compound: CCN(CCCOc1ccc2c(Nc3cc(CC(=O)Nc4cccc(F)c4)n[nH]3)ncnc2c1)CCOP(=O)(O)O [AZD1152, 2-(ethyl(3-((4-((5-(2-((3-fluorophenyl)amino)-2-oxoethyl)-1H-pyrazol-3-yl)amino)quinazolin-7-yl)oxy)propyl)amino)ethyl dihydrogen phosphate]
- bone marrow hypocellularity score (0-4) (bone marrow [4]): large impact on bone marrow
- efficacy of IV 25 mg/kg for 4 days (100 mg/kg total dose) ([6]; SW620 xenograft model in rat and mouse): maximal efficacy
- dose at which maximum activity was achieved ([6]; total dose equivalent, SW620): 100 mg/kg
- proportion of pHH3-positive cells within G2/M phase ([7]; FIG. 12): maximally suppressed
- proportion of pHH3-positive cells within G2/M phase ([7]; FIG. 15): maximally suppressed
